In patent US9403855B2 (priority 2010, dated 2016):

Columns and labels:
[1] = biological target: T1, H274Y neuraminidase mutant from A/WSN/1933 (H1N1) (Influenza A virus, UniProt P03470, H259Y); experiment: cell-based; set-up: species or system Influenza virus A/WSN/1933 (H1N1) H274Y mutant
[2] = biological target: T1, H274Y neuraminidase mutant from A/WSN/1933 (H1N1); experiment: biochemical; set-up: species or system Influenza virus A/WSN/1933 (H1N1) H274Y mutant

Row | SMILES | EC50 [1] [nM] | IC50 [2] [nM]
1 | CC(=O)N[C@H]1[C@H]([C@H](O)[C@H](O)CO)OC(P(=O)(O)O)=C[C@@H]1NC(=N)N [1b, (5-Acetamido-4-guanidino-6-(1,2,3-hydroxy)propyl-4,5,6-trihydropyran-2-yl) phosphonic acid] | 26 | 0.25
2 | CC(=O)N[C@H]1[C@H]([C@H](O)[C@H](O)CO)OC(P(=O)(O)O)=C[C@@H]1N [1a, (5-Acetamido-4-amino-6-(1,2,3-hydroxy)propyl-4,5,6-trihydropyran-2-yl) phosphonic acid] | 27 | 0.5
